ChEMBL document CHEMBL4118166, “Design, synthesis and evaluation of potent and selective inhibitors of mono-(ADP-ribosyl)transferases PARP10 and PARP14” (Bioorg Med Chem Lett, 2018)
≈ marks a conversion by molar mass, not a printed value.

Columns and labels:
[1] = target: T1, Protein mono-ADP-ribosyltransferase PARP10 (Homo sapiens, UniProt Q53GL7); test: Inhibition of full length recombinant His6-tagged human PARP10 expressed in Escherichia coli BL21(DE3) preincubated for 15 mins followed by biotinylated NAD+ addition by chemiluminescence assay
T1 sequence (Q53GL7 whole entry): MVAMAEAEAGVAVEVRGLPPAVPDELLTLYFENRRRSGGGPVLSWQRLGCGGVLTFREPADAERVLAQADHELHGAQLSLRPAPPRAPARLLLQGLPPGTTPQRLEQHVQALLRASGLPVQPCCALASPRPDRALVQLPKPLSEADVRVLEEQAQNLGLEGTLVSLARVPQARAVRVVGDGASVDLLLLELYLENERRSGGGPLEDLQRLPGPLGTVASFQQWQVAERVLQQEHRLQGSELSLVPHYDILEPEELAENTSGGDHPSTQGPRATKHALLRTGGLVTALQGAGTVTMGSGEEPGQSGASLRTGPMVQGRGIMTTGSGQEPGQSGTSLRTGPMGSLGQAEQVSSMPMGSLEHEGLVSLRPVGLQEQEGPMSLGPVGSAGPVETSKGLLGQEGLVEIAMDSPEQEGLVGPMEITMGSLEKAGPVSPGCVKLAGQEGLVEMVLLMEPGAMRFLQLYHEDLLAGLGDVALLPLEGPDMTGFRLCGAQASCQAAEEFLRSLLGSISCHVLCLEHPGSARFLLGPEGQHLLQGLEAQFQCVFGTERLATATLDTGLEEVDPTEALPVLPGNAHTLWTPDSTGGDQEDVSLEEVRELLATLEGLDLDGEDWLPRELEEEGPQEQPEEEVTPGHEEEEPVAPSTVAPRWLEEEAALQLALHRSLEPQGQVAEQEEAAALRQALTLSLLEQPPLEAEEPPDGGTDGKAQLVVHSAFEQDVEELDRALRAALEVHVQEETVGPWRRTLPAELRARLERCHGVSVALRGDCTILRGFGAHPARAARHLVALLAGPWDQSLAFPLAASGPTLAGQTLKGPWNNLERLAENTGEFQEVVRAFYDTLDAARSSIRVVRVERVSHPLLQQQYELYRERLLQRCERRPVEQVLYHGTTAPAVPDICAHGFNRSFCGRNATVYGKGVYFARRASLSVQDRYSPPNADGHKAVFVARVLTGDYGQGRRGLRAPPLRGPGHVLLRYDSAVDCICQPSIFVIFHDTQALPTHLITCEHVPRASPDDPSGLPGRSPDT

[2] = target: Protein mono-ADP-ribosyltransferase PARP14 (Homo sapiens) (UniProt Q460N5); test: Inhibition of full length recombinant His6-tagged human PARP14 WWA/catalytic domain expressed in Escherichia coli BL21(DE3) at 5 uM preincubated for 15 mins followed by biotinylated NAD+ addition by chemiluminescence assay relative to control
[3] = Thermodynamic solubility of the compound in phosphate buffer at pH 7.4 after 24 hrs by HPLC/UV based shake flask method; format: physicochemical; conditions: read-out: Therm_solubility
[4] = Metabolic stability in mouse liver microsomes assessed as compound remaining level at 5 uM after 2 hrs in presence of G-6-P, G-6-PDH, MgCl2 and NADP+ by LC-MS/MS analysis; format: ADME, microsome; conditions: read-out: Stability
[5] = Metabolic stability in mouse liver microsomes compound remaining level at 5 uM in absence of co-factors after 2 hrs by LC-MS/MS analysis; format: ADME, microsome; conditions: read-out: Stability
[6] = target: T2, Protein mono-ADP-ribosyltransferase PARP15 (Homo sapiens, UniProt Q460N3); test: Inhibition of full length recombinant His6-tagged PARP15 catalytic domain (unknown origin) expressed in Escherichia coli BL21(DE3) by fluorescence based assay
T2 sequence (Q460N3 whole entry): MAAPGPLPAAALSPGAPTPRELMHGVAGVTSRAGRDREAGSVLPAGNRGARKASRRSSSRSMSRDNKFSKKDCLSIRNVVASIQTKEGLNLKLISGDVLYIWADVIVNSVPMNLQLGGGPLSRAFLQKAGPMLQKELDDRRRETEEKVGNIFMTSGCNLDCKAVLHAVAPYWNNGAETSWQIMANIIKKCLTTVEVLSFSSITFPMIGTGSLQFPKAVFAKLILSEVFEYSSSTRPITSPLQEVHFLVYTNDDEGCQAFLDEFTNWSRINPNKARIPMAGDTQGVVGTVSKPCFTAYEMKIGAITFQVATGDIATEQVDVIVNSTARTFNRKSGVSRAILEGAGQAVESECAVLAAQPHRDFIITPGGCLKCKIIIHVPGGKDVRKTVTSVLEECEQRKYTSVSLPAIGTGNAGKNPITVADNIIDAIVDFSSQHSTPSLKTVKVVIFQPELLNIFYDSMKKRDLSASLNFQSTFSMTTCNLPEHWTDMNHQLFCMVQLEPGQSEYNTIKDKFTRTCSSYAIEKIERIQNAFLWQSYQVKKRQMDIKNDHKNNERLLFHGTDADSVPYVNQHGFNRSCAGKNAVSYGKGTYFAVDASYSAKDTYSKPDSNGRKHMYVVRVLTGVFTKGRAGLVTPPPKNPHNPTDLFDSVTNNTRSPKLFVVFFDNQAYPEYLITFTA

Protein mono-ADP-ribosyltransferase PARP14 (Homo sapiens), sequence (Q460N5 whole entry, the tested form may be a part): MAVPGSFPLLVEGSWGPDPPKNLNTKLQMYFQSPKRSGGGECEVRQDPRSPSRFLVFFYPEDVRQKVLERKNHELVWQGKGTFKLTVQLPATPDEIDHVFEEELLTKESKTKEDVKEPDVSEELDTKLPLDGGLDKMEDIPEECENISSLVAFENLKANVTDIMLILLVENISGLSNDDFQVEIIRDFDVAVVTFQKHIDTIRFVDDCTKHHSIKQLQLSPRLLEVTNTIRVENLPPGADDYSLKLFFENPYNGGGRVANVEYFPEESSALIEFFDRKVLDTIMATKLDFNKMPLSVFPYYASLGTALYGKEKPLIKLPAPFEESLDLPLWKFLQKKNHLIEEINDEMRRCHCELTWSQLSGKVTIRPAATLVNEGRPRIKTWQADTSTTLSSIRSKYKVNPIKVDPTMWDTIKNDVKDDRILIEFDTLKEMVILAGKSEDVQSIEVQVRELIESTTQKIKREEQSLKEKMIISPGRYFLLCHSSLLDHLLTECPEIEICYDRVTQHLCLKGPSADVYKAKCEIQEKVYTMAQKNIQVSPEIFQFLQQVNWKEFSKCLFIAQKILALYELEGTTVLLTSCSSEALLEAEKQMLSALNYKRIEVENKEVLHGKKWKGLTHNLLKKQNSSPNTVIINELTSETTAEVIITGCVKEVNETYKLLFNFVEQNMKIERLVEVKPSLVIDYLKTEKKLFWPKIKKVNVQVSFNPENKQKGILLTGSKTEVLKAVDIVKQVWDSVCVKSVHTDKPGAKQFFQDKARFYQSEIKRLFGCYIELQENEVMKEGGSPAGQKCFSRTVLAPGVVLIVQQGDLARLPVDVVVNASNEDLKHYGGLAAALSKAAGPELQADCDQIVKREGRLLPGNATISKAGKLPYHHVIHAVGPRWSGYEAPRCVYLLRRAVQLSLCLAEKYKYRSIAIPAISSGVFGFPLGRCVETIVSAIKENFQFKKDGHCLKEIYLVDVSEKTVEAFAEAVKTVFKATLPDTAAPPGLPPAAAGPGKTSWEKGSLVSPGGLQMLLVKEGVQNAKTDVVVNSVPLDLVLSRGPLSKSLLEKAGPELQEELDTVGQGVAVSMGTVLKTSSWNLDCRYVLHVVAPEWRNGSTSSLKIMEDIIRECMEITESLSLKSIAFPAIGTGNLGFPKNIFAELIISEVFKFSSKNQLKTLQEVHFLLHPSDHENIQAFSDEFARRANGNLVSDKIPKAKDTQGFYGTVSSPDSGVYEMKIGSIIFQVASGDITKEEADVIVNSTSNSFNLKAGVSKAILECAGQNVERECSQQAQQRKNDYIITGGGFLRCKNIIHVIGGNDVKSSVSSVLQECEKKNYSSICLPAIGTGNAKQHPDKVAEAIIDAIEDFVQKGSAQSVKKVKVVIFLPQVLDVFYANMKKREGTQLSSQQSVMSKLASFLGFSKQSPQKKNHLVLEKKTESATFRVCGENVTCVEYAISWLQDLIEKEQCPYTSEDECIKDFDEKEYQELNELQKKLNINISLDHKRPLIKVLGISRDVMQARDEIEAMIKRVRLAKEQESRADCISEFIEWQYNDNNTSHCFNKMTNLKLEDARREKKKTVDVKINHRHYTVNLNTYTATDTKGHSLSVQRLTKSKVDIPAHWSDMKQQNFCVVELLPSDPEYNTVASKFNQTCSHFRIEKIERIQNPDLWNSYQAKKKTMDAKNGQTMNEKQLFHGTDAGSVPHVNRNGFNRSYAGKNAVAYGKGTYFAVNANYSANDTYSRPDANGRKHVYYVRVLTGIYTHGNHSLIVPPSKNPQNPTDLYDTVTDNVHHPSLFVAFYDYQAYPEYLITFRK

Row | IC50 [1] | solubility thermodynamic at 24 h [3] | remaining at 2 h, 5 µM [4] | remaining at 2 h, 5 µM [5] | SMILES | other results
1 | 510 nM |  |  |  | NC(=O)c1ccc(Oc2cccc(C(N)=O)c2)cc1 | 
2 | 1650 nM |  |  |  | NC(=O)c1ccc(Oc2ccc(C(=O)N3CCC(c4ccc(F)cc4)CC3)cc2)cc1 | 
3 |  | 242 µM (≈ 105 µg/mL) | 45.3% | 100% | NC(=O)c1ccc(Oc2cccc(C(=O)N3CCC(O)(c4ccc(F)cc4)CC3)c2)cc1 | 

The remaining lines, values behind:

Row | SMILES | IC50 [1] | solubility thermodynamic at 24 h [3] | remaining at 2 h, 5 µM [4] | remaining at 2 h, 5 µM [5] | other results
4 | CCOC(=O)C1CCN(C(=O)c2cccc(Oc3ccc(C(N)=O)cc3)c2)CC1 | 1060 nM |  |  |  | inhibition [2]: 51%
5 | NC(=O)c1ccc(Oc2cccc(C(=O)N3CCC(c4ccccc4F)CC3)c2)cc1 | 470 nM |  |  |  | 
6 | NC(=O)c1ccc(Oc2cccc(C(=O)N3CCN(c4ccc(F)cc4)CC3)c2)cc1 |  | 60 µM (≈ 25.2 µg/mL) | 39% | 88.1% | 
7 | NC(=O)c1ccc(Oc2cccc(C(=O)N3CCC(c4ccc(F)cc4)CC3)c2)cc1 |  | 42 µM (≈ 17.6 µg/mL) | 16.4% | 91.8% | 
8 | NC(=O)c1ccc(Oc2ccc(C(=O)N3CCC(c4cccc(F)c4)CC3)cc2)cc1 | 1220 nM |  |  |  | 
9 | NC(=O)c1ccc(Oc2cccc(C(=O)N3CCC(O)(c4ccccc4)CC3)c2)cc1 | 1500 nM |  |  |  | 
10 | NC(=O)c1ccc(Oc2ccc(C(N)=O)cc2)cc1 |  |  |  |  | IC50 [6]: 4170 nM
